Source: patent publication EP4813993A1, “COMPOUND, PREPARATION METHOD THEREFOR, AND USE THEREOF” (Sichuan Kelun Pharmaceutical Research Institute Co., Ltd., priority 2023, dated 2025)

Columns and labels:
[1] = Tissue distribution study (dorsal root ganglia) in ICR mice; type: in vivo; details: male, mouse, oral administration 20 mg/kg
Description: Experimental Example 4: Tissue distribution study of compounds in ICR mice
Experimental animals: ICR mice, male, 6-8 weeks old.
(§1) Compound preparation: 5% (final preparation volume) of DMSO was added to dissolve the test compound, and then 10% (final preparation volume) of Cremophor EL and 85% Saline were sequentially added.
Experimental design: The test compounds were administered to ICR mice as a single dose via oral administration (20 mg/kg; n = 3, 3 time points). Blood samples were collected at 0.25 h, 2 h, and 12 h after oral administration, followed by sacrifice of the animals. Dorsal root ganglia (DRG) were collected, rinsed with ice-cold normal saline to remove residual blood, blotted dry with absorbent paper, and stored at -70 °C for analysis.
Sample test: The concentrations of the compound drugs in dorsal root ganglia were determined by the LC-MS/MS method.

[2] = test system: spinal nerve ligation model (SNL); assay: Rat spinal nerve ligation model (SNL), Von Frey test; type: in vivo, SD rats; details: for PWT 50% value (g) Post-surgery, Preadministration / PWT 50% value (g) Pre-surgery / PWT 50% value (g) Time 0.5 h / PWT 50% value (g) Time 2 h / PWT 50% value (g) Time 4 h / PWT 50% value (g) Time 6 h / PWT 50% value (g) Time 8 h / PWT 50% value (g) AUC0-8h: SD rats SNL, Mean + SEM, n = 10; for PWT 50% value (g) Post-surgery, Preadministration: baseline before administration; for PWT 50% value (g) Pre-surgery: baseline before surgery; for PWT 50% value (g) Time 0.5 h: 0.5 h after administration; for PWT 50% value (g) Time 2 h: 2 h after administration; for PWT 50% value (g) Time 4 h: 4 h after administration; for PWT 50% value (g) Time 6 h: 6 h after administration; for PWT 50% value (g) Time 8 h: 8 h after administration
Description: Experimental Example 8: Pharmacodynamic effect study of compounds in rat spinal nerve ligation model (SNL) Experimental animals: SD rats, male, 180-220 g.
as §1
SD rats were anesthetized with isoflurane via inhalation. Each rat was placed in a prone position, and the hair at the surgical site was shaved locally. The surgical site was disinfected with alcohol and iodophor. Under sterile conditions, a 3-4 cm longitudinal incision was made at the level of the lower lumbar/upper sacrum to expose the left paravertebral muscles. Using small sharp-blunt scissors, the paravertebral muscles were bluntly dissected, and the transverse process of L6 was excised. The L4 and L5 spinal nerves were isolated and exposed, and the L5 spinal nerve was ligated with 6-0 silk sutures. The surgical wound was treated with ceftriaxone for anti-inflammation and infection prevention. The muscles and skin were sutured layer by layer, followed by disinfection with iodophor. After the surgery, the animals were placed on a warm electric blanket for heat preservation and returned to the cages for rearing after complete recovery from anesthesia. Postoperative behavioral observations were performed.
2. Administration and test
The Von Frey test was performed once before the surgery. On the 5th and 6th days after surgery, paw-lifting training was performed once each day. Animals with a baseline of 2-5 g were selected for enrollment and grouped based on the 50% PWT values, with 10 animals per group. The next day, a single dose was administered in a blinded manner. The 50% PWT of the animals was measured separately before administration (baseline) and at 0.5 h, 2 h, 4 h, 6 h, or 8 h after administration. The model control group was given normal saline, while the compound groups were given the compounds according to the administration doses in the table below.

[3] = test system: formalin pain model; assay: Rat formalin pain model; type: in vivo, SD rats; details: for Number of pain responses 0 min / Number of pain responses 10 min / Number of pain responses 15 min / Number of pain responses 30 min / Number of pain responses 40 min / Number of pain responses 50 min / Number of pain responses 60 min: SD rats, Mean + SD, n = 10
Summary of the method: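 Male SD rats (180-200 g, n=10/group) dosed 0, 60 or 120 min before 50 µL 5% formalin into right plantar region. Pain responses counted for 1 min every 5 min over 60 min; inhibition rate relative to vehicle control group.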

[4] = Tissue distribution study (dorsal root ganglia) in SD rats; type: in vivo; details: male, rat, oral administration 10 mg/kg
Description: Experimental Example 5: Tissue distribution study of compounds in SD rats
Experimental animals: SD rats, male, 6-8 weeks old.
as §1
Experimental design: The test compounds were administered to SD rats as a single dose via oral administration (10 mg/kg; n = 3, 3 time points). Blood samples were collected at 0.5 h, 2 h, and 6 h after oral administration, followed by sacrifice of the animals. Dorsal root ganglia were collected, rinsed with ice-cold normal saline to remove residual blood, blotted dry with absorbent paper, and stored at -70 °C for analysis.
Sample test: The concentrations of the designated compound drugs in plasma and tissues were determined by the LC-MS/MS method.

[5] = 50 mg/kg p.o. 120 min before 5% formalin
[6] = 125 mg/kg p.o. 120 min before 5% formalin

## COc1c(C2CC(C)(C(F)(F)F)SC2C(=O)Nc2ccnc(C(N)=O)c2)ccc(F)c1F (single isomer, unassigned) [Compound 139-A, 4-(3-(3,4-difluoro-2-methoxyphenyl)-5-methyl-5-(trifluoromethyl)tetrahydrothiophene-2-carboxamido)picolinamide]
[1]; Time 0.25 h
  concentration at 0.25 h: 1920 ng/g
[1]; Time 2 h
  concentration at 2 h: 9380 ng/g
[1]; Time 12 h
  concentration at 12 h: 2600 ng/g
[2]; 50 mg/kg group
  PWT 50% value (g) Post-surgery, Preadministration: 2.68 ± 1.05 g
  PWT 50% value (g) Pre-surgery: 14.94 ± 2.38 g
[2]; 50 mg/kg single dose
  PWT 50% value (g) Time 0.5 h: 5.78 ± 2.76 g
  PWT 50% value (g) Time 2 h: 8.76 ± 2.47 g
  PWT 50% value (g) Time 4 h: 7.73 ± 4.32 g
  PWT 50% value (g) Time 6 h: 4.9 ± 1.61 g
  PWT 50% value (g) Time 8 h: 3.57 ± 1.44 g
  PWT 50% value (g) AUC0-8h: 50.59 ± 15.71 g
[2]; 125 mg/kg group
  PWT 50% value (g) Post-surgery, Preadministration: 2.68 ± 1 g
  PWT 50% value (g) Pre-surgery: 13.83 ± 3.18 g
[2]; 125 mg/kg single dose
  PWT 50% value (g) Time 0.5 h: 6.96 ± 3.34 g
  PWT 50% value (g) Time 2 h: 9.61 ± 3.73 g
  PWT 50% value (g) Time 4 h: 7.26 ± 3.19 g
  PWT 50% value (g) Time 6 h: 5.01 ± 1.63 g
  PWT 50% value (g) Time 8 h: 3.88 ± 1.67 g
  PWT 50% value (g) AUC0-8h: 52.87 ± 15.06 g
[2]; rat SNL model
  dose-effect relationship: relatively good dose-effect relationship
[2]; rat SNL model, all time points
  differences compared with the model group: significant differences compared with the model group at all time points
[3]; [5]
  Number of pain responses 0 min: 35.6±6.7
  Number of pain responses 10 min: 1.7±2.5
  Number of pain responses 15 min: 6.8±3.9
  Number of pain responses 30 min: 15.1±4.4
  Number of pain responses 40 min: 12.7±5.9
  Number of pain responses 50 min: 6.1±5.2
  Number of pain responses 60 min: 2.7±2.6
[3]; [6]
  Number of pain responses 0 min: 25.5±13.6
  Number of pain responses 10 min: 1.1±1.1
  Number of pain responses 15 min: 4.3±2.7
  Number of pain responses 30 min: 11.7±6.3
  Number of pain responses 40 min: 4.8±3.9
  Number of pain responses 50 min: 1.8±1.8
  Number of pain responses 60 min: 1.8±1.2
[3]; rat formalin pain model
  dose-effect relationship: relatively good dose-effect relationship
[3]; rat formalin pain model, first phase immediately after injection, second phase about 15-20 min after
  analgesic activity in the first and second phases: significant analgesic activity in both the first and second phases
[4]; Time 0.5 h
  concentration at 0.5 h: 1070 ng/g
[4]; Time 2 h
  concentration at 2 h: 973 ng/g
[4]; Time 6 h
  concentration at 6 h: 549 ng/g
